Laboratory results reported in US9981923B2, “1,2,3 Triazole antifungal agents and preparation thereof” (COUNCIL OF SCIENTIFIC & INDUSTRIAL RESEARCH, priority 2014, dated 2018).
Converted amounts (≈) assume the structure as drawn. Where two headings read alike, the source gives them in different places.

Legend:
ergosterol = experiment: Effect of the compounds on sterol profile (spectrophotometric ergosterol quantitation); type: cell-based, C. albicans ATCC 24433; conditions: for ergosterol depletion (sterol profile, height of absorbance peaks 220-300 nm): C. albicans ATCC 24433, 24 h, 0.5 MIC and MIC of the lead compounds
Protocol: Inhibition of lanosterol 14 α-demethylase by azoles results in depletion of ergosterol. The depletion can be quantified by spectrophotometry. Briefly, Overnight grown C. albicans ATCC 24433 (1×10^6 cfu/ml) cells were inoculated in a series of flasks containing 50 ml of Yeast extract Peptone Glucose (YPG) broth containing […] of fluconazole per ml as well as 0.5 MIC and MIC of the lead compounds. The cultures were incubated for 24 h with shaking at 30° C. The stationary-phase cells were harvested by centrifugation […] and washed once with sterile distilled water. The net wet weight of the cell pellet was determined. Three milliliters of 25% alcoholic potassium hydroxide solution (25 g of […] and 35 ml of sterile distilled water, brought to 100 ml with 100% ethanol), was added to 125 mg of pellet and vortex mixed for 1 min. Cell suspensions were transferred to sterile borosilicate glass screw-cap tubes and were incubated in an 85° C. water bath for 1 h. Following incubation, tubes were allowed to cool to room temperature. Sterols were then extracted by addition of a mixture of 1 ml of sterile distilled water and 3 ml of n-heptane followed by vigorous vortex mixing for 3 min. The heptane layer was transferred to a clean borosilicate glass screw-cap tube. The sterol extract was scanned spectrophotometrically between 220 and 300 nm with a Spectrophotometer.

[1] = system: Aspergillus fumigatus MCC 1046; experiment: Antifungal susceptibility by microbroth dilution (CLSI); type: cell-based; conditions: Aspergillus fumigatus
Protocol: (§1) The synthesized compounds were evaluated for antifungal susceptibility by microbroth dilution method according to the recommendations of the Clinical Laboratory Standards Institute (CLSI 2008). Briefly, appropriate amount of compounds were dissolved in dimethyl sulfoxide to get 100× final strength. The stock was then diluted 1:50 in RPMI/YPG medium and 200 μl from this was added to the first row of a 96-well microtitre plate. The compounds were serially diluted two fold in successive wells to get a range of 1-128 μg/ml. Fungal yeast cells (˜2×10^3 cfu/mL), freshly grown in YPG broth in logarithmic phase, were suspended in the medium and inoculated (100 μl) in the wells of the plate. For filamentous fungi, 2×10^4 spores/mL were added. The microtitre plate was incubated for 48 h, and the absorbance was measured at 600 nm by using microtitre plate reader to assess cell growth.

[2] = system: Aspergillus niger ATCC 10578; experiment: as above; type: cell-based; conditions: Aspergillus niger
Protocol: as §1

[3] = system: Cryptococcus neoformans ATCC 34664; experiment: as above; type: cell-based; conditions: Cryptococcus neoformans, ATCC34664
Protocol: as §1

[4] = system: Candida albicans ATCC 24433; experiment: as above; type: cell-based; conditions: Candida albicans, ATCC24433
Protocol: as §1

[5] = system: Candida glabrata NCYC 388; experiment: as above; type: cell-based; conditions: Nakaseomyces glabratus
Protocol: as §1

C. tropicalis ATCC 750 = experiment: as above; type: cell-based; conditions: Candida tropicalis, ATCC750; Table 2
Protocol: as §1

[6] = system: Candida albicans ATCC 10231; experiment: as above; type: cell-based; conditions: Candida albicans, ATCC10231
Protocol: as §1

[7] = MCC1046, Table 1, 48 h, >90% inhibition of growth, read-out: MIC
[8] = ATCC10578, Table 1, 48 h, >90% inhibition of growth, read-out: MIC
[9] = Table 1, 48 h, >90% inhibition of growth, read-out: MIC
[10] = Table 1, 48 h, >90% inhibition of growth, range 1-128 μg/ml, read-out: MIC
[11] = NCYC388, Table 1, 48 h, >90% inhibition of growth, read-out: MIC
[12] = MCC1046, Table 2, read-out: MIC values
[13] = ATCC10578, Table 2, read-out: MIC values
[14] = NCYC388, Table 2, read-out: MIC values

Oc1cc(Cl)ccc1-n1cc(CC(O)c2cc(C(F)(F)F)cc(C(F)(F)F)c2)nn1 (stereo not shown) [Compound 1jb, 2-(4-(2-(3,5-Bis(trifluoromethyl)phenyl)-2-hydroxyethyl)-1H-1,2,3-triazol-1-yl)-5-chlorophenol]
melting point: 192 to 194 °C

CC(O)(c1ccccc1)c1cn(-c2cc(Cl)ccc2O)nn1 (stereo not shown) [Compound 2ca]
inhibition of lanosterol 14 α-demethylase enzyme (concluded from ergosterol depletion) (ergosterol; C. albicans ATCC 24433 sterol profile): potent inhibitors

Oc1ccc(Cl)cc1-n1cc(C(O)c2cc(C(F)(F)F)cc(C(F)(F)F)c2)nn1 (stereo not shown) [Compound 1ba, 2-(4-((3,5-Bis(trifluoromethyl)phenyl)(hydroxy)methyl)-1H-1,2,3-triazol-1-yl)-4-chlorophenol]
melting point: 211 to 213 °C | MIC [1, 7]: > 128 mg/L | MIC [2, 8]: > 128 mg/L | MIC [3, 9]: 16 mg/L (≈ 36.6 µM) | MIC [4, 10]: 128 mg/L (≈ 292 µM) | MIC [5, 11]: 128 mg/L (≈ 292 µM)

CC(O)(c1ccccc1)c1cn(-c2ccc(Cl)cc2O)nn1 (stereo not shown) [Compound 2cb, 5-Chloro-2-(4-(1-hydroxy-1-phenylethyl)-1H-1,2,3-triazol-1-yl)phenol]
melting point: 232 to 234 °C | ergosterol depletion (sterol profile, height of absorbance peaks 220-300 nm) (ergosterol): no ergosterol depletion was observed

CC(O)(Cc1cn(-c2ccc(Cl)cc2O)nn1)c1ccccc1 (stereo not shown) [Compound 2fb, 5-Chloro-2-(4-(2-hydroxy-2-phenylpropyl)-1H-1,2,3-triazol-1-yl)phenol]
melting point: 189 to 190 °C

CCCCC(O)(Cc1cn(-c2cc(Cl)ccc2O)nn1)c1ccccc1 (stereo not shown) [Compound 2ha, 4-chloro-2-(4-(2-hydroxy-2-phenylhexyl)-1H-1,2,3-triazol-1-yl)phenol]
melting point: 165 to 167 °C

Oc1cc(Cl)ccc1-n1cc(CC(O)c2ccccc2)nn1 (stereo not shown) [Compound 1eb, 5-Chloro-2-(4-(2-hydroxy-2-phenylethyl)-1H-1,2,3-triazol-1-yl)phenol]
melting point: 171 to 172 °C

CC(O)(Cc1cn(-c2cc(Cl)ccc2O)nn1)c1ccc(F)cc1F (stereo not shown) [Compound 3aa, 4-Chloro-2-(4-(2-(2,4-difluorophenyl)-2-hydroxypropyl)-1H-1,2,3-triazol-1-yl)phenol]
MIC (C. tropicalis ATCC 750): 128 mg/L (≈ 350 µM) | MIC [1, 12]: > 256 mg/L | MIC [2, 13]: 128 mg/L (≈ 350 µM) | MIC ([3]; Table 2, read-out: MIC values): 64 mg/L (≈ 175 µM) | MIC ([6]; Table 2, read-out: MIC values): 32 mg/L (≈ 87.5 µM) | MIC ([4]; Table 2, read-out: MIC values): 32 mg/L (≈ 87.5 µM) | MIC [5, 14]: 32 mg/L (≈ 87.5 µM)

CC(O)(Cc1cn(-c2ccc(F)cc2O)nn1)c1ccc(Cl)cc1Cl (stereo not shown) [Compound 3bc, 2-(4-(2-(2,4-Dichlorophenyl)-2-hydroxypropyl)-1H-1,2,3-triazol-1-yl)-5-fluorophenol]
MIC (C. tropicalis ATCC 750): 32 mg/L (≈ 83.7 µM) | MIC [1, 12]: 64 mg/L (≈ 167 µM) | MIC [2, 13]: 64 mg/L (≈ 167 µM) | MIC ([3]; Table 2, read-out: MIC values): 16 mg/L (≈ 41.9 µM) | MIC ([6]; Table 2, read-out: MIC values): 8 mg/L (≈ 20.9 µM) | MIC ([4]; Table 2, read-out: MIC values): 16 mg/L (≈ 41.9 µM) | MIC [5, 14]: 16 mg/L (≈ 41.9 µM)

Cc1cc(C)cc(C(O)c2cn(-c3cc(Cl)ccc3O)nn2)c1 (stereo not shown) [Compound 1aa, 4-Chloro-2-(4-((3,5-dimethylphenyl)(hydroxy)methyl)-1H-1,2,3-triazol-1-yl)phenol]
melting point: 191 to 193 °C | MIC [1, 7]: 64 mg/L (≈ 194 µM) | MIC [2, 8]: 64 mg/L (≈ 194 µM) | MIC [3, 9]: 32 mg/L (≈ 97 µM) | MIC [4, 10]: 64 mg/L (≈ 194 µM) | MIC [5, 11]: 32 mg/L (≈ 97 µM)

OC(Cn1cncn1)(Cn1cncn1)c1ccc(F)cc1F [Fluconazole, reference compound]
MIC ([1]; MCC1046, 48 h): > 128 mg/L | MIC ([2]; ATCC10578, 48 h): > 128 mg/L | MIC [3, 9]: 32 mg/L (≈ 104 µM) | MIC [6, 9]: 8 mg/L (≈ 26.1 µM) | MIC [4, 10]: 2 mg/L (≈ 6.53 µM) | MIC ([5]; NCYC388, 48 h): > 128 mg/L | ergosterol depletion (sterol profile, height of absorbance peaks 220-300 nm) (ergosterol): dose-dependent decrease in the height of the absorbance peaks

CC(O)(Cc1cn(-c2cc(Cl)ccc2O)nn1)c1ccc(F)cc1 (stereo not shown) [Compound 3da, 4-Chloro-2-(4-(2(4fluorophenyl)-2-hydroxypropyl)-1H-1,2,3-triazol-1-yl)phenol]
MIC (C. tropicalis ATCC 750): 128 mg/L (≈ 368 µM) | MIC [1, 12]: 64 mg/L (≈ 184 µM) | MIC [2, 13]: 128 mg/L (≈ 368 µM) | MIC ([3]; Table 2, read-out: MIC values): 64 mg/L (≈ 184 µM) | MIC ([6]; Table 2, read-out: MIC values): 32 mg/L (≈ 92 µM) | MIC ([4]; Table 2, read-out: MIC values): 32 mg/L (≈ 92 µM) | MIC [5, 14]: 64 mg/L (≈ 184 µM)

Oc1ccc(Cl)cc1-n1cc(CC(O)c2cc(C(F)(F)F)cc(C(F)(F)F)c2)nn1 (stereo not shown) [Compound 1ja, 2-(-4-(2-(3,5-Bis(trifluoromethyl)phenyl)-2-hydroxyethyl)-1,2,3-triazol-1-yl)-4-chlorophenol]
melting point: 181 to 183 °C

Oc1ccc(Cl)cc1-n1cc(CC(O)c2ccccc2)nn1 (stereo not shown) [Compound 1ea, 4-Chloro-2-(4-(2-hydroxy-2-phenylethyl)-1H-1,2,3-triazol-1-yl)phenol]
melting point: 148 to 150 °C | MIC [1, 7]: 128 mg/L (≈ 405 µM) | MIC [2, 8]: 64 mg/L (≈ 203 µM) | MIC [3, 9]: > 128 mg/L | MIC [4, 10]: 64 mg/L (≈ 203 µM) | MIC [5, 11]: 128 mg/L (≈ 405 µM)

CC(O)(Cc1cn(-c2ccc(Cl)cc2O)nn1)c1cc(C(F)(F)F)cc(C(F)(F)F)c1 (stereo not shown) [Compound 2sb, 2-(4-(2-(3,5-Bis(trifluoromethyl)phenyl)-2-hydroxypropyl)-1H-1,2,3-triazol-1-yl)-5-chlorophenol]
melting point: 156 to 158 °C

Oc1ccc(Cl)cc1-n1cc(CC(O)(c2ccccc2)c2ccccc2)nn1 [Compound 2ia, 4-Chloro-2-(4-(2-hydroxy-2,2-diphenylethyl)-1H-1,2,3-triazol-1-yl)phenol]
melting point: 194 to 196 °C | MIC [1, 7]: 128 mg/L (≈ 327 µM) | MIC [2, 8]: > 128 mg/L | MIC [3, 9]: > 128 mg/L | MIC [4, 10]: 128 mg/L (≈ 327 µM) | MIC [5, 11]: 128 mg/L (≈ 327 µM)

CC(O)(Cc1cn(-c2ccc(Cl)cc2O)nn1)c1ccc(Br)cc1 (stereo not shown) [Compound 3fb, 2-(4-(2-(4-Bromophenyl)-2-hydroxypropyl)-1H-1,2,3-triazol-1-yl)-5-chlorophenol]
MIC (C. tropicalis ATCC 750): 64 mg/L (≈ 157 µM) | MIC [1, 12]: 64 mg/L (≈ 157 µM) | MIC [2, 13]: 64 mg/L (≈ 157 µM) | MIC ([3]; Table 2, read-out: MIC values): 32 mg/L (≈ 78.3 µM) | MIC ([6]; Table 2, read-out: MIC values): 16 mg/L (≈ 39.2 µM) | MIC ([4]; Table 2, read-out: MIC values): 16 mg/L (≈ 39.2 µM) | MIC [5, 14]: 32 mg/L (≈ 78.3 µM)

CC(O)(Cc1cn(-c2cc(Cl)ccc2O)nn1)c1ccc(Cl)cc1 (stereo not shown) [Compound 3ea, 4-Chloro-2-(4-(2-(4-chlorophenyl)-2-hydroxypropyl)-1H-1,2,3-triazol-1-yl)phenol]
MIC (C. tropicalis ATCC 750): 64 mg/L (≈ 176 µM) | MIC [1, 12]: 64 mg/L (≈ 176 µM) | MIC [2, 13]: 64 mg/L (≈ 176 µM) | MIC ([3]; Table 2, read-out: MIC values): 32 mg/L (≈ 87.9 µM) | MIC ([6]; Table 2, read-out: MIC values): 8 mg/L (≈ 22 µM) | MIC ([4]; Table 2, read-out: MIC values): 16 mg/L (≈ 43.9 µM) | MIC [5, 14]: 16 mg/L (≈ 43.9 µM)

Oc1cc(Cl)ccc1-n1cc(CC(O)(c2ccccc2)c2ccccc2)nn1 [Compound 2ib, 5-Chloro-2-(-4-(2-hydroxy-2,2-diphenylethyl)-1H-1,2,3-triazol-1-yl)phenol]
melting point: 210 to 212 °C
